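1) Cells in 96-well plates. 2) Compound, 48 h, 5 concentrations. 3) Linear interpolation between surrounding doses. 4) Unreached endpoint = highest concentration. Here, GI50 denotes the concentration required for 50% inhibition of growth.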 Calls of active or inactive are those of the source. Cut-off read from the data, not from the text of the source: active = GI50 up to about 1.1 µM and inactive = higher.
What was measured:
Assay in all cases: inhibition of tumour cell growth, NCI panel, 48 h
COLO 205 = system: COLO 205
EKVX = system: EKVX
HCT-116 = system: HCT-116
HCT-15 = system: HCT-15
HOP-62 = system: HOP-62
HT-29 = system: HT-29
M14 = system: M14
MDA-MB-231 = system: MDA-MB-231
NCI-H226 = system: NCI-H226
NCI/ADR-RES = system: NCI/ADR-RES
OVCAR-5 = system: OVCAR-5
OVCAR-8 = system: OVCAR-8
RPMI-8226 = system: RPMI-8226
SF-268 = system: SF-268
SF-539 = system: SF-539
SK-MEL-28 = system: SK-MEL-28
SW-620 = system: SW-620
UACC-257 = system: UACC-257
UACC-62 = system: UACC-62
UO-31 = system: UO-31

SMILES | GI50 (COLO 205) | GI50 (EKVX) | GI50 (HCT-116) | GI50 (HCT-15) [µM] | GI50 (HOP-62) | GI50 (HT-29) | GI50 (M14) | GI50 (MDA-MB-231) | GI50 (NCI-H226) | GI50 (NCI/ADR-RES) | GI50 (OVCAR-5) | GI50 (OVCAR-8) | GI50 (RPMI-8226) | GI50 (SF-268) | GI50 (SF-539) | GI50 (SK-MEL-28) | GI50 (SW-620) | GI50 (UACC-257) | GI50 (UACC-62) | GI50 (UO-31)
[O-][N+]1=[N+]([O-])[C@@H](c2ccccc2)[C@H]1c1ccccc1 | 19.3 µM (inactive) | 18.3 µM (inactive) | 16.6 µM (inactive) | 11.4 | 18.7 µM (inactive) | 18.3 µM (inactive) | 15.8 µM (inactive) | 20.2 µM (inactive) | 21.3 µM (inactive) | 17.5 µM (inactive) | 19.9 µM (inactive) | 16.8 µM (inactive) | 4.48 µM (inactive) | 24.9 µM (inactive) | 18.4 µM (inactive) | 16.6 µM (inactive) | 14.5 µM (inactive) | 13.1 µM (inactive) | 17.5 µM (inactive) | 14.8 µM (inactive)
CC(C)/C(Cl)=N/OC(NC(=O)Nc1ccc(Cl)c(Cl)c1)(C(F)(F)F)C(F)(F)F | 3.17 µM (inactive) | 19.4 µM (inactive) | 7.36 µM (inactive) | 13.2 | 21.6 µM (inactive) | 15.4 µM (inactive) | 5.65 µM (inactive) | 15.5 µM (inactive) | 19.9 µM (inactive) | 14.6 µM (inactive) | 19.7 µM (inactive) | 17.7 µM (inactive) | 1.72 µM (inactive) | 18.2 µM (inactive) | 17.4 µM (inactive) | 19.2 µM (inactive) | 1.81 µM (inactive) | 13.2 µM (inactive) | 16 µM (inactive) | 17.3 µM (inactive)
C=CCOC(=O)N1c2ccc(O)cc2[C@@]23O[C@@]24[C@@H]1C#C/C=C\C#C[C@]3(O)C(=O)C[C@@H]4C | 36.6 µM (inactive) | 78 µM (inactive) | 51.5 µM (inactive) | > 100 | > 100 µM (inactive) | 43.5 µM (inactive) | 39.7 µM (inactive) | > 100 µM (inactive) | 34.4 µM (inactive) | 65.5 µM (inactive) | 28.2 µM (inactive) | 47.1 µM (inactive) | 25.6 µM (inactive) | 79.1 µM (inactive) | 83.8 µM (inactive) | > 100 µM (inactive) | > 100 µM (inactive) | > 100 µM (inactive) | 99.8 µM (inactive) | 54.3 µM (inactive)
CCOC(=O)NN(C(=O)OCC)C(C(=O)c1ccccc1)N(NC(=O)OCC)C(=O)OCC | > 100 µM (inactive) | > 100 µM (inactive) | > 100 µM (inactive) | > 100 | > 100 µM (inactive) | > 100 µM (inactive) | > 100 µM (inactive) | > 100 µM (inactive) | > 100 µM (inactive) | > 100 µM (inactive) | > 100 µM (inactive) | > 100 µM (inactive) | > 100 µM (inactive) | > 100 µM (inactive) | > 100 µM (inactive) | > 100 µM (inactive) | > 100 µM (inactive) | > 100 µM (inactive) | > 100 µM (inactive) | > 100 µM (inactive)
CN(C)c1nc(N)c(C#N)c(C#N)c1C#N | > 8.81 µM (inactive) | > 10 µM (inactive) | > 10 µM (inactive) | > 10 | > 10 µM (inactive) | > 10 µM (inactive) | > 10 µM (inactive) | > 10 µM (inactive) | > 10 µM (inactive) | > 10 µM (inactive) | > 10 µM (inactive) | > 10 µM (inactive) | > 8.79 µM (inactive) | > 10 µM (inactive) | > 10 µM (inactive) | > 10 µM (inactive) | 8.73 µM (inactive) | > 10 µM (inactive) | > 10 µM (inactive) | > 10 µM (inactive)
CC(=O)OCC1OC(n2c(N)c(C#N)c(-c3ccccc3)c(C#N)c2=S)C(OC(C)=O)C(OC(C)=O)C1OC(C)=O (stereo not given) | > 100 µM (inactive) | > 74.3 µM (inactive) | > 100 µM (inactive) | > 100 | 11.6 µM (inactive) | > 100 µM (inactive) | > 100 µM (inactive) | 34 µM (inactive) | > 61.4 µM (inactive) | > 100 µM (inactive) | > 100 µM (inactive) | 34.9 µM (inactive) | > 100 µM (inactive) | 7.8 µM (inactive) | > 46.9 µM (inactive) | > 100 µM (inactive) | > 100 µM (inactive) | > 100 µM (inactive) | > 61.8 µM (inactive) | 45 µM (inactive)
COc1cc2c(cc1OCCCN1CCN(C)CC1)N=C[C@@H]1CCCN1C2=O | 1.02 µM (active) | 2.03 µM (inactive) | 2.7 µM (inactive) | 2.25 | 3.44 µM (inactive) | 1.74 µM (inactive) | 1.86 µM (inactive) | 2.18 µM (inactive) | 1.93 µM (inactive) | 3.5 µM (inactive) | 2.27 µM (inactive) | 2.58 µM (inactive) | 1.04 µM (active) | 3.03 µM (inactive) | 2.19 µM (inactive) | 1.9 µM (inactive) | 1.41 µM (inactive) | 2.5 µM (inactive) | 1.78 µM (inactive) | 2.14 µM (inactive)
